In experiment [1] the target is HIV-1 RT (Human immunodeficiency virus type 1 group M subtype B, UniProt P04585). The settings on record: Tachedjian et al., 2001, PNAS, 7188-7193; cited from earlier work.
Experiment [2] concerns the target T1, WT p66/p66 RT (Human immunodeficiency virus type 1 group M subtype B, UniProt P04585).
T1 construct: IPTG-dependent expression of the non-HIS-tagged 66 kDa RT subunit; made in house; host or cells: E. coli JM109 (pKK-RT66WT)
The experiment can be described thus: Inhibition of WT p66/p66 RT (data not shown). The experiment is classed as biochemical, HIV-1. An excerpt:
The P2C/C38S/C280S p66/p66 RT chemically alkylated with the Eu-N1-iodoacetamido chelate retains approximately 80% of the RDDP activity of the unmodified protein (Table 1). […] Thus, the genetic and chemical manipulations of RT required to prepare reagents for the dimerization assay appear to have little effect on the response of the enzyme within the parameters of the assay protocol.

In experiment [3] the target is T2, unlabeled P2C/C38S/C280S p66/p66 RT (Human immunodeficiency virus type 1 group M subtype B, UniProt P04585, C625S/C867S/P588C).
T2 construct: made in house; host or cells: E. coli JM109 (pKK-RT66-P2C)
The experiment can be described thus: Inhibition of unlabeled P2C/C38S/C280S p66/p66 RT by HIV RT inhibitors. It counts as biochemical, HIV-1.

For experiment [4], the target named is T3, Eu^3+-labeled P2C/C38S/C280S p66/p66 RT (Human immunodeficiency virus type 1 group M subtype B, UniProt P04585, C625S/C867S/P588C).
T3 construct: made in house; host or cells: E. coli JM109 (pKK-RT66-P2C), then chemical alkylation
The experiment in a line: Inhibition of Eu3+-labeled P2C/C38S/C280S p66/p66 RT by HIV RT inhibitors. It counts as biochemical, HIV-1. The settings on record: P2C/C38S/C280S p66/p66 RT alkylated with Eu-N1-iodoacetamido chelate.
Protocol: Purified P2C/C38S/C280S p66/p66 RT was concentrated to approximately 20 μM (˜2.5 mg/ml) in 50 mM Tris-HCl buffer (pH 7.9 at 20° C.) containing 100 mM NaCl and 1 mM TCEP-HCl (Tris(2-carboxyethyl)phosphine hydrochloride (Pierce)) at room temperature. An aliquot of Eu-N1-iodoacetamido chelate protein-modification reagent (prepared as a 5 mM stock solution in DMSO) was added to provide an approximately 20-fold molar excess relative to the p66 subunit concentration. The alkylation reaction was allowed to proceed for up to 6 hours at room temperature. Alternatively, the reaction may be carried out overnight at 4° C. Upon completion of the reaction, an excess of DTT was added to consume unreacted Eu-N 1-iodoacetamido chelate. The alkylated p66/p66 RT was separated from the DTT-reagent conjugate by two passages through a NAPT™ 25 column equilibrated with a 25 mM Tris-HCl buffer (pH 7.5, 20° C.) containing 60 mM MgCl2 and 50% glycerol. The stoichiometry of labeling was generally found to be between 0.7-1 mol of Eu-N1-iodoacetamide per mol of p66 RT subunit (i.e., 1.5-2 mol/mol p66/p66 RT homodimer).

Experiment [5] has as its target HIV-1 RT p66/p51 heterodimer (Human immunodeficiency virus type 1 group M subtype B, UniProt P04585, C625S/C867S/P588C). The experiment can be described thus: TRF microplate assay of p66/p51 RT heterodimer formation. To be noted: compound at 10 μM; dimer formation 6 h; urea diluted 3.5 M to 0.35 M.
Protocol: The general principle of the assay involves mixing of His6x-p51 with fluorophore-labeled p66 RT in solution, with subsequent solid-phase capture of resulting His6x-p51/fluorophore-labeled p66 RT heterodimer on Ni^2+-NTA microplates. After washing to remove unbound material, the amount of microplate-associated fluorescence is measured in an appropriate fluorescence plate reader.
In a total volume of 20 μl, mix 100 pmol of purified His6x-p51 RT subunit and 200 pmol of Eu-N1-iodoacetamido chelate labeled p66 RT subunit (i.e., 100 pmol RT p66/p66 homodimer) with urea (prepared in 25 mM Tris-HCl pH 7.5, 20° C., containing 100 mM MgCl2) to provide a final concentration of 3.5 M urea. Incubate this mixture for 1 h at room temperature.
Dilute this solution into 200 μL of a solution of the compound of interest at 10 μM (in 25 mM Tris-HCl pH 7.5, 20° C., containing 50 mM Na2SO4) contained in a well of a 96-well Ni-NTA HiSorb Plate.
The dilution step provides a 10-fold dilution to reduce the urea concentration from 3.5M to 0.35M, thereby allowing formation of the RT p66/p51 heterodimer. Dimer formation is allowed to proceed for 6 h, then the plates are washed 3× with Delfia wash buffer containing 200 μM DTPA. After washing, 200 μL of the Delfia enhancement solution is added to each well, followed by incubation at room temperature for 30 minutes.

Structures are written as SMILES.

In the case of `Cc1ccnc2c1NC(=O)c1cccnc1N2C1CC1` [Nevirapine], the “Effect on dimerization of the HIV-1 RT as reported” value in experiment [1] is given as “chemical enhancers of dimerization”.
As for `CCn1c(=O)c(C)cn([C@@H]2O[C@H](CO[Si](C)(C)C(C)(C)C)C3(OS(=O)(=O)C=C3N)[C@H]2O[Si](C)(C)C(C)(C)C)c1=O` (some centres unmarked) [TSAOe3T], the “Sensitivity of WT p66/p66 RT to inhibition compared with unmodified P2C/C38S/C280S p66/p66 mutant” value in experiment [2] is on record as “equally sensitive”. Also, the IC50 in experiment [3] and in experiment [4] was 3 µM in each case.
In the case of `Cc1cn([C@@H]2O[C@H](CO[Si](C)(C)C(C)(C)C)[C@@]3(OS(=O)(=O)C=C3N)[C@H]2O[Si](C)(C)C(C)(C)C)c(=O)n(C)c1=O` [TSAOm^3T], the “TRF signal relative to control (RT dimerization, FIG. 5B)” value in experiment [5] is listed as “decreases the signal”.
